Experimental data taken from patent US9499550B2 (BRISTOL-MYERS SQUIBB COMPANY, priority 2012, dated 2016).
Where two headings read alike, the source gives them in different places.

Tests used:
[1] = system: HCV genotype 1a (H77 strain) replicon in HUH-7 cells; test: HCV replicon luciferase reporter assay, genotype 1a; assay type: cell-based; details: Hepatitis C virus, Huh-7, 72 h, HCV genotype 1a replicon luciferase, 3 days incubation
How it was run: (§1)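 Replicon inhibition for both genotypes was measured as Renilla luciferase signal (EnduRen, 7.5 μM final, 2 h) after 3-day, 37° C exposure of replicon-bearing HUH-7 cells in 4% FCS DMEM, 0.5% DMSO. The 1b construct carries S1179I; the 1a H77 construct carries P1496L and S2204I. Twenty-point, 3-fold dilutions were fitted four-parametrically for EC50, and CC50 was taken from multiplexed Cell Titer-Blue.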

[2] = system: HCV genotype 1b (Con1) replicon in HUH-7 cells; test: HCV replicon luciferase reporter assay, genotype 1b; assay type: cell-based; details: Hepatitis C virus, Huh-7, 72 h, HCV genotype 1b replicon luciferase, 3 days incubation
How it was run: as §1

SMILES	EC50 ([1]; read-out: LE_1a (EC50, range)) [nM]	EC50 ([2]; read-out: LE_1b (EC50, range)) [nM]	EC50 ([1]; read-out: LE_1a (EC50)) [nM]	EC50 ([2]; read-out: LE_1b (EC50)) [nM]
CC[C@@H]1C[C@H](C)CC/C=C\[C@@H]2C[C@@]2(C(=O)NS(=O)(=O)C2(C)CC2)NC(=O)[C@@H]2C[C@@H](Oc3nc4c(c5ccccc35)CCCO4)CN2C(=O)[C@H]1NC(=O)OC(C)(C)C [Compound 6064, tert-butyl ((2R,6S,7R,9R,13aS,14aR,16aS,Z)-2-((2,3-dihydro-1H-pyrano[2,3-c]isoquinolin-6-yl)oxy)-7-ethyl-9-methyl-14a-(((1-methylcyclopropyl)sulfonyl)carbamoyl)-5,16-dioxo-1,2,3,5,6,7,8,9,10,11,13a,14,14a,15,16,16a-hexadecahydrocyclopropa[e]pyrrolo[1,2-a][1,4]diazacyclopentadecin-6-yl)carbamate]	0.51 to 1	0.1 to 0.5	–	–
C[C@@H]1CC/C=C\[C@@H]2C[C@@]2(C(=O)NS(=O)(=O)C2(CF)CC2)NC(=O)[C@@H]2C[C@@H](Oc3nccc4c5c(ccc34)CCCO5)CN2C(=O)[C@@H](NC(=O)OC(C)(C)C(F)(F)F)[C@H](C)C1 [Compound 6066, 1,1,1-trifluoro-2-methylpropan-2-yl((2R,6S,7R,9R,13aS,14aR,16aS,Z)-2-((3,4-dihydro-2H-pyrano[2,3-f]isoquinolin-7-yl)oxy)-14a-(((1-(fluoromethyl)cyclopropyl)sulfonyl)carbamoyl)-7,9-dimethyl-5,16-dioxo-1,2,3,5,6,7,8,9,10,11,13a,14,14a,15,16,16a-hexadecahydrocyclopropa[e]pyrrolo[1,2-a][1,4]diazacyclopentadecin-6-yl)carbamate]	1.01 to 5	1.01 to 5	–	–
CC[C@@H]1C[C@H](C)CC/C=C\[C@@H]2C[C@@]2(C(=O)NS(=O)(=O)C2(CF)CC2)NC(=O)[C@@H]2C[C@@H](Oc3nc4c(c5ccccc35)CCCO4)CN2C(=O)[C@H]1NC(=O)OC(C)(C)C(F)(F)F [Compound 6068, 1,1,1-trifluoro-2-methylpropan-2-yl((2R,6S,7R,9R,13aS,14aR,16aS,Z)-2-((2,3-dihydro-1H-pyrano[2,3-c]isoquinolin-6-yl)oxy)-7-ethyl-14a-(((1-(fluoromethyl)cyclopropyl)sulfonyl)carbamoyl)-9-methyl-5,16-dioxo-1,2,3,5,6,7,8,9,10,11,13a,14,14a,15,16,16a-hexadecahydrocyclopropa[e]pyrrolo[1,2-a][1,4]diazacyclopentadecin-6-yl)carbamate]	1.01 to 5	0.51 to 1	–	–
CC[C@@H]1C[C@H](C)CC/C=C\[C@@H]2C[C@@]2(C(=O)NS(=O)(=O)C2(CF)CC2)NC(=O)[C@@H]2C[C@@H](Oc3nc4c(c5ccccc35)CCCO4)CN2C(=O)[C@H]1NC(=O)OC(C)(C)C(C)(F)F [Compound 6070, 3,3-difluoro-2-methylbutan-2-yl((2R,6S,7R,9R,13aS,14aR,16aS,Z)-2-((2,3-dihydro-1H-pyrano[2,3-c]isoquinolin-6-yl)oxy)-7-ethyl-14a-(((1-(fluoromethyl)cyclopropyl)sulfonyl)carbamoyl)-9-methyl-5,16-dioxo-1,2,3,5,6,7,8,9,10,11,13a,14,14a,15,16,16a-hexadecahydrocyclopropa[e]pyrrolo[1,2-a][1,4]diazacyclopentadecin-6-yl)carbamate]	1.01 to 5	0.51 to 1	–	–
CC[C@@H]1C[C@H](C)CC/C=C\[C@@H]2C[C@@]2(C(=O)NS(=O)(=O)C2(CF)CC2)NC(=O)[C@@H]2C[C@@H](Oc3nc4c(c5ccccc35)CCCO4)CN2C(=O)[C@H]1NC(=O)OC(C)(C)C(F)F [Compound 6072, 1,1-difluoro-2-methylpropan-2-yl((2R,6S,7R,9R,13aS,14aR,16aS,Z)-2-((2,3-dihydro-1H-pyrano[2,3-c]isoquinolin-6-yl)oxy)-7-ethyl-14a-(((1-(fluoromethyl)cyclopropyl)sulfonyl)carbamoyl)-9-methyl-5,16-dioxo-1,2,3,5,6,7,8,9,10,11,13a,14,14a,15,16,16a-hexadecahydrocyclopropa[e]pyrrolo[1,2-a][1,4]diazacyclopentadecin-6-yl)carbamate]	1.01 to 5	0.51 to 1	–	–
C[C@@H]1CC/C=C\[C@@H]2C[C@@]2(C(=O)NS(=O)(=O)C2(CF)CC2)NC(=O)[C@@H]2C[C@@H](Oc3nc4c(c5ccccc35)CCCO4)CN2C(=O)[C@@H](NC(=O)OC(C)(C)C(F)F)[C@H](C)C1 [Compound 6074, 1,1-difluoro-2-methylpropan-2-yl((2R,6S,7R,9R,13aS,14aR,16aS,Z)-2-((2,3-dihydro-1H-pyrano[2,3-c]isoquinolin-6-yl)oxy)-14a-(((1-(fluoromethyl)cyclopropyl)sulfonyl)carbamoyl)-7,9-dimethyl-5,16-dioxo-1,2,3,5,6,7,8,9,10,11,13a,14,14a,15,16,16a-hexadecahydrocyclopropa[e]pyrrolo[1,2-a][1,4]diazacyclopentadecin-6-yl)carbamate]	0.51 to 1	1.01 to 5	–	–
COc1ccc2c(O[C@@H]3C[C@H]4C(=O)N[C@]5(C(=O)NS(=O)(=O)C6(CF)CC6)C[C@H]5/C=C\CC[C@@H](C)C[C@@H](C)[C@H](NC(=O)OC(C)(C)C(F)(F)F)C(=O)N4C3)nc3c(c2c1)CCCO3 [Compound 6076, 1,1,1-trifluoro-2-methylpropan-2-yl((2R,6S,7R,9R,13aS,14aR,16aS,Z)-14a-(((1-(fluoromethyl)cyclopropyl)sulfonyl)carbamoyl)-2-((9-methoxy-2,3-dihydro-1H-pyrano[2,3-c]isoquinolin-6-yl)oxy)-7,9-dimethyl-5,16-dioxo-1,2,3,5,6,7,8,9,10,11,13a,14,14a,15,16,16a-hexadecahydrocyclopropa[e]pyrrolo[1,2-a][1,4]diazacyclopentadecin-6-yl)carbamate]	1.01 to 5	1.01 to 5	–	–
COc1ccc2c(O[C@@H]3C[C@H]4C(=O)N[C@]5(C(=O)NS(=O)(=O)C6(CF)CC6)C[C@H]5/C=C\CC[C@@H](C)C[C@@H](C)[C@H](NC(=O)OC(C)(C)C(F)F)C(=O)N4C3)nc3c(c2c1)CCCO3 [Compound 6078, 1,1-difluoro-2-methylpropan-2-yl((2R,6S,7R,9R,13aS,14aR,16aS,Z)-14a-(((1-(fluoromethyl)cyclopropyl)sulfonyl)carbamoyl)-2-((9-methoxy-2,3-dihydro-1H-pyrano[2,3-c]isoquinolin-6-yl)oxy)-7,9-dimethyl-5,16-dioxo-1,2,3,5,6,7,8,9,10,11,13a,14,14a,15,16,16a-hexadecahydrocyclopropa[e]pyrrolo[1,2-a][1,4]diazacyclopentadecin-6-yl)carbamate]	1.01 to 5	1.01 to 5	–	–
COc1ccc2c(O[C@@H]3C[C@H]4C(=O)N[C@]5(C(=O)NS(=O)(=O)C6(C)CC6)C[C@H]5/C=C\CC[C@@H](C)C[C@@H](C)[C@H](NC(=O)OC(C)(C)C(F)(F)F)C(=O)N4C3)nc3c(c2c1)CCCO3 [Compound 6080, 1,1,1-trifluoro-2-methylpropan-2-yl((2R,6S,7R,9R,13aS,14aR,16aS,Z)-2-((9-methoxy-2,3-dihydro-1H-pyrano[2,3-c]isoquinolin-6-yl)oxy)-7,9-dimethyl-14a-(((1-methylcyclopropyl)sulfonyl)carbamoyl)-5,16-dioxo-1,2,3,5,6,7,8,9,10,11,13a,14,14a,15,16,16a-hexadecahydrocyclopropa[e]pyrrolo[1,2-a][1,4]diazacyclopentadecin-6-yl)carbamate]	0.1 to 0.5	0.51 to 1	0.31	0.79
COc1ccc2c(O[C@@H]3C[C@H]4C(=O)N[C@]5(C(=O)NS(=O)(=O)C6(C)CC6)C[C@H]5/C=C\CC[C@@H](C)C[C@@H](C)[C@H](NC(=O)OC(C)(C)C(C)(F)F)C(=O)N4C3)nc3c(c2c1)CCCO3 [Compound 6082, 3,3-difluoro-2-methylbutan-2-yl((2R,6S,7R,9R,13aS,14aR,16aS,Z)-2-((9-methoxy-2,3-dihydro-1H-pyrano[2,3-c]isoquinolin-6-yl)oxy)-7,9-dimethyl-14a-(((1-methylcyclopropyl)sulfonyl)carbamoyl)-5,16-dioxo-1,2,3,5,6,7,8,9,10,11,13a,14,14a,15,16,16a-hexadecahydrocyclopropa[e]pyrrolo[1,2-a][1,4]diazacyclopentadecin-6-yl)carbamate]	0.51 to 1	1.01 to 5	–	–
COc1ccc2c(O[C@@H]3C[C@H]4C(=O)N[C@]5(C(=O)NS(=O)(=O)C6(C)CC6)C[C@H]5/C=C\CC[C@@H](C)C[C@@H](C)[C@H](NC(=O)OC(C)(C)C(F)F)C(=O)N4C3)nc3c(c2c1)CCCO3 [Compound 6084, 1,1-difluoro-2-methylpropan-2-yl((2R,6S,7R,9R,13aS,14aR,16aS,Z)-2-((9-methoxy-2,3-dihydro-1H-pyrano[2,3-c]isoquinolin-6-yl)oxy)-7,9-dimethyl-14a-(((1-methylcyclopropyl)sulfonyl)carbamoyl)-5,16-dioxo-1,2,3,5,6,7,8,9,10,11,13a,14,14a,15,16,16a-hexadecahydrocyclopropa[e]pyrrolo[1,2-a][1,4]diazacyclopentadecin-6-yl)carbamate]	0.1 to 0.5	0.51 to 1	–	–
CC[C@@H]1C[C@H](C)CC/C=C\[C@@H]2C[C@@]2(C(=O)NS(=O)(=O)C2(CF)CC2)NC(=O)[C@@H]2C[C@@H](Oc3nc4c(c5cc(OC)ccc35)CCCO4)CN2C(=O)[C@H]1NC(=O)OC(C)(C)C(F)(F)F [Compound 6086, 1,1,1-trifluoro-2-methylpropan-2-yl((2R,6S,7R,9R,13aS,14aR,16aS,Z)-7-ethyl-14a-(((1-(fluoromethyl)cyclopropyl)sulfonyl)carbamoyl)-2-((9-methoxy-2,3-dihydro-1H-pyrano[2,3-c]isoquinolin-6-yl)oxy)-9-methyl-5,16-dioxo-1,2,3,5,6,7,8,9,10,11,13a,14,14a,15,16,16a-hexadecahydrocyclopropa[e]pyrrolo[1,2-a][1,4]diazacyclopentadecin-6-yl)carbamate]	5.01 to 35	5.01 to 35	–	–
